In brackets after ≈: the same amount, converted by molar mass.
Tests used:
Aphidius rhopalosiphi = settings: acute; duration: 2 days; mortality
Apis mellifera = settings: acute; duration: 48 hours; dermal; mortality
Bird = settings: acute; oral; unspecified; mortality
Daphnia magna = settings: chronic/long-term; duration: 21 days; reproduction
Lepomis macrochirus = settings: acute; duration: 96 hours; mortality
Oryctolagus sp. = settings: acute; oral; mortality
Canidae = settings: chronic; duration: 1 years; oral; Dog Other; clinical signs

Row | Compound | NOEL (Anas platyrhynchos; acute, oral, unspecified, mortality) [mg/kg] | NOEL (Anas platyrhynchos; reproductive) [mg/kg-day] | LC50 (Anas platyrhynchos; short-term, oral, feed, mortality) [mg/kg-day] | LEL (Aphidius rhopalosiphi) [g/ha] | LD50 (Apis mellifera) [µg/piece] | LD50 (Bird) [mg/kg] | NOEC (Daphnia magna) [mg/L] | LC50 (Lepomis macrochirus) [µg/mL] | LD50 (Oryctolagus sp.) [mg/kg-day] | NOAEL (Rattus norvegicus; chronic, duration: 104 weeks, neurology) [mg/kg-day] | NOAEL (Rattus norvegicus; subchronic, duration: 90 days, oral, clinical chemistry) [mg/kg-day] | NOAEL (Canidae) [mg/kg-day] | NOAEL (Rattus norvegicus; reproduction developmental) [mg/kg-day]
1 | CCCCN(CCCC)SN(C)C(=O)Oc1cccc2c1OC(C)(C)C2 [Carbosulfan] | 2.51 | 2.5 | 3.99 | 120 | 0.18 | 10 | 0.0032 | 0.015 (≈ 0.0394 µM) | 42.7 | 1 | 2 | – | –
2 | CNC(=O)Oc1cccc2c1OC(C)(C)C2 [Carbofuran] | – | – | – | – | – | – | – | – | – | – | – | 0.1 | 0.1

— EPA's ToxValDB 9.5 (doi:10.2903/j.efsa.2006.91r)
